According to patent US8431557B2, “Treatment of menopause-associated symptoms” (Besins Healthcare Luxembourg SARL, priority 2006, dated 2013):
Read-outs that look alike come from different tables or passages of the source.

Legend:
[1] = Plasma concentrations of estradiol and unconjugated estrone (HPLC with MS/MS); assay type: in vivo, human (women); conditions: for Geometric Mean Concentration of E2 (plasma): Baseline; for concentration at 4 weeks / concentration at 8 weeks / concentration at 12 weeks: female, human, plasma, topical, read-out: Geometric Mean Concentration of E2 (plasma)
Procedure: A single 10 mL sample of whole blood was collected at baseline, Weeks 4, 8, and 12. To eliminate the possibility of sample contamination, only the specimens obtained from the arm not used for estradiol application were reported.

[2] = cited from earlier work
menopausal women [3] = assay: Placebo-controlled study: frequency of moderate to severe hot flushes; assay type: in vivo, human (women); parameters: key to Frequency of Moderate to Severe Hot Flushes, Mean Change from Baseline / Frequency of Moderate to Severe Hot Flushes, Mean: number of moderate-to-severe hot flushes per day; conditions: for Frequency of Moderate to Severe Hot Flushes, Mean: Baseline, daily average
Procedure: (§1) This study was a multi-centred, double-blind, placebo-controlled, parallel group comparison. A total of 351 subjects were enrolled at 78 sites in the United States.
(§2) A two-week, medication free, Pre-Treatment Phase was used to determine subject vasomotor symptoms. Efficacy assessments included the number and intensity of hot flushes per day, and severity of vulvar and vaginal atrophy symptoms.
(§3) The three treatment groups comprised the following dosages: • A 0.375 mg dose (1.25 g of gel @ 0.03%) applied to one arm and 0.9 g of placebo gel applied on the other arm once daily for 12 weeks; • A 0.27 mg dose (0.9 g of gel @ 0.03%) applied to one arm and 1.25 g of placebo gel applied on the other arm once daily for 12 weeks; and • 0.9 g of placebo gel applied to one arm and 1.25 g of placebo gel applied on the other arm once daily for 12 weeks.
(§4) The Treatment Phase was 12 weeks. A pre-treatment period of 2 weeks was used to initially evaluate each subject's vasomotor symptoms.
(§5) All data were analyzed using the approach of Observed Cases (OC).
(§6) For all continuous primary and secondary efficacy parameters, descriptive statistics tables and 2-way ANCOVA with fixed factors treatment and centre, and baseline value as covariate were provided. The interaction of treatment and centre was investigated using 2-way ANCOVA with fixed factors treatment, centre, and treatment-by-centre interaction with baseline value as covariate. To control the Type-I error rate, a step-down procedure using contrasts was performed to compare each treatment group to the placebo group. First, the group with the 0.375 mg dose was compared against placebo at the α=0.05 level (2-sided). If the null hypothesis was rejected, the group with the 0.27 mg dose was compared to placebo at the α=0.05 level (2-sided). Graphs were used to characterize the dose response. If the assumptions of the model were not met, then van Elteren's test with centre as the stratification variable was used in the step-down procedure. For categorical data, Fisher's exact test was used to compare treatment groups.
(§7) The study assessed the following variables: • Mean change in frequency of moderate to severe vasomotor symptoms from baseline to Week 4; • Mean change in frequency of moderate to severe vasomotor symptoms from baseline to Week 12; • Mean change in severity of moderate to severe vasomotor symptoms from baseline to Week 4; • Mean change in severity of moderate to severe vasomotor symptoms from baseline to Week 12; • Mean change in frequency of moderate-to-severe hot flushes at each week; • Mean change in severity of moderate-to-severe hot flushes at each week; • Mean change from baseline to Week 12 in the moderate to severe symptom of vulvar and vaginal atrophy that has been identified by the subject as being the most bothersome to her (vaginal pain, dryness, irritation/itching, bleeding, dysuria);
The baseline value was defined as the daily average of moderate to severe hot flushes during the 2 Pre-Treatment Phase weeks. The “daily average” was calculated from “the mean across the reported days at each week or at Pre-Treatment Phase weeks. If only mild hot flushes were reported on any day, the moderate to severe hot flush value for the subject on that day was zero. If less than 10 days of data were available for the baseline period, the baseline daily average was considered missing.
On a daily basis, the subject recorded the number of hot flushes and rated the intensity of each based on a four-point scale as follows: • 0 (none) • 1 (mild) Sensation of heat without perspiration • 2 (moderate) Sensation of heat with perspiration, but the subject was able to continue with their activity • 3 (severe) Sensation of heat with sweating, sufficiently severe to result in discontinuation of activity Assessment of Vulvar and Vaginal Atrophy Symptom Severity

menopausal women [4] = assay: Placebo-controlled study: moderate to severe symptom of vulvar and vaginal atrophy; assay type: in vivo, human (women)
Procedure: as §1, §2, §3, §4, §5, §6, §7
The severity of symptoms of vulvar and vaginal atrophy (vaginal pain associated with sexual activity, dryness, irritation/itching, bleeding associated with sexual activity, or dysuria) that was identified by the subject as moderate to severe and most bothersome was assessed at Week 1, Week 12, or Early Termination using the following rating scale: […]

[5] = 0.27 mg dose (N = 115), Baseline
[6] = 0.27 mg dose (N = 115), Endpoint

**Q.** Which “Geometric Mean Concentration of E2 (plasma)” value ([1]; 0.270 mg estradiol dose) does the source give for `C[C@]12CC[C@@H]3c4ccc(O)cc4CC[C@H]3[C@@H]1CC[C@@H]2O` [estradiol, 17-beta estradiol] here?
**A.** 4.2 pg/mL

**Q.** And the “Geometric Mean Concentration of E2 (plasma)” value ([1]; 0.375 mg estradiol dose)?
**A.** 3.7 pg/mL

**Q.** What about the concentration at 4 weeks ([1]; 0.27 mg) of the same compound?
**A.** 0.0142 ng/mL

**Q.** And the concentration at 8 weeks ([1]; 0.27 mg)?
**A.** 0.0156 ng/mL

**Q.** What about the concentration at 12 weeks ([1]; 0.27 mg) of the same compound?
**A.** 0.014 ng/mL

**Q.** What about the concentration at 4 weeks ([1]; 0.375 mg) of the same compound?
**A.** 0.0183 ng/mL

**Q.** And the concentration at 8 weeks ([1]; 0.375 mg)?
**A.** 0.0158 ng/mL

**Q.** And the concentration at 12 weeks ([1]; 0.375 mg)?
**A.** 0.0214 ng/mL

**Q.** What about the serum estradiol level ([2]; daily topical 0.75 mg dose of estradiol (1.25 g of hydro-alcoholic gel per day)) of the same compound?
**A.** elevation in the serum estradiol level

**Q.** What about the serum estradiol level ([2]; lower estradiol dose than 0.75 mg) of the same compound?
**A.** did not achieve similar serum levels

**Q.** What about the “Week at which statistical significance vs placebo was achieved, frequency of moderate to severe hot flushes” value (menopausal women [3]; 0.27 mg dose) of the same compound?
**A.** 4 Week

**Q.** And the “Frequency of Moderate to Severe Hot Flushes, Mean” value (menopausal women [3]; 0.27 mg dose)?
**A.** 11.73

**Q.** And the “Frequency of Moderate to Severe Hot Flushes, Mean Change from Baseline” value (shortened to “Frequency … Mean Change from Baseline”) (menopausal women [3]; 0.27 mg dose, Week 1)?
**A.** −1.05

**Q.** And the “Frequency … Mean Change from Baseline” value (menopausal women [3]; 0.27 mg dose, Week 2)?
**A.** −2.97

**Q.** What about the “Frequency … Mean Change from Baseline” value (menopausal women [3]; 0.27 mg dose, Week 3) of the same compound?
**A.** −4.08

**Q.** What about the “Frequency … Mean Change from Baseline” value (menopausal women [3]; 0.27 mg dose, Week 4) of the same compound?
**A.** −4.63

**Q.** And the “Frequency … Mean Change from Baseline” value (menopausal women [3]; 0.27 mg dose, Week 5)?
**A.** −5.20

**Q.** What about the “Frequency … Mean Change from Baseline” value (menopausal women [3]; 0.27 mg dose, Week 6) of the same compound?
**A.** −5.62

**Q.** And the “Frequency … Mean Change from Baseline” value (menopausal women [3]; 0.27 mg dose, Week 7)?
**A.** −6.02

**Q.** And the “Frequency … Mean Change from Baseline” value (menopausal women [3]; 0.27 mg dose, Week 8)?
**A.** −6.02

**Q.** And the “Frequency … Mean Change from Baseline” value (menopausal women [3]; 0.27 mg dose, Week 9)?
**A.** −6.24

**Q.** And the “Frequency … Mean Change from Baseline” value (menopausal women [3]; 0.27 mg dose, Week 10)?
**A.** −6.29

**Q.** And the “Frequency … Mean Change from Baseline” value (menopausal women [3]; 0.27 mg dose, Week 11)?
**A.** −6.29

**Q.** What about the “Frequency … Mean Change from Baseline” value (menopausal women [3]; 0.27 mg dose, Week 12) of the same compound?
**A.** −6.19

**Q.** What about the “Week at which statistical significance vs placebo was achieved, frequency of moderate to severe hot flushes” value (menopausal women [3]; 0.375 mg dose) of the same compound?
**A.** 2 Week

**Q.** And the “Frequency of Moderate to Severe Hot Flushes, Mean” value (menopausal women [3]; 0.375 mg dose)?
**A.** 12.50

**Q.** What about the “Frequency … Mean Change from Baseline” value (menopausal women [3]; 0.375 mg dose, Week 1) of the same compound?
**A.** −1.93

**Q.** And the “Frequency … Mean Change from Baseline” value (menopausal women [3]; 0.375 mg dose, Week 2)?
**A.** −4.36

**Q.** What about the “Frequency … Mean Change from Baseline” value (menopausal women [3]; 0.375 mg dose, Week 3) of the same compound?
**A.** −5.73

**Q.** What about the “Frequency … Mean Change from Baseline” value (menopausal women [3]; 0.375 mg dose, Week 4) of the same compound?
**A.** −6.91

**Q.** What about the “Frequency … Mean Change from Baseline” value (menopausal women [3]; 0.375 mg dose, Week 5) of the same compound?
**A.** −7.56

**Q.** What about the “Frequency … Mean Change from Baseline” value (menopausal women [3]; 0.375 mg dose, Week 6) of the same compound?
**A.** −7.83

**Q.** And the “Frequency … Mean Change from Baseline” value (menopausal women [3]; 0.375 mg dose, Week 7)?
**A.** −8.05

**Q.** And the “Frequency … Mean Change from Baseline” value (menopausal women [3]; 0.375 mg dose, Week 8)?
**A.** −8.49

**Q.** And the “Frequency … Mean Change from Baseline” value (menopausal women [3]; 0.375 mg dose, Week 9)?
**A.** −8.69

**Q.** And the “Frequency … Mean Change from Baseline” value (menopausal women [3]; 0.375 mg dose, Week 10)?
**A.** −8.47

**Q.** What about the “Frequency … Mean Change from Baseline” value (menopausal women [3]; 0.375 mg dose, Week 11) of the same compound?
**A.** −8.81

**Q.** What about the “Frequency … Mean Change from Baseline” value (menopausal women [3]; 0.375 mg dose, Week 12) of the same compound?
**A.** −8.76

**Q.** And the “Efficacy vs. placebo, frequency and severity of moderate to severe hot flushes” value (menopausal women [3]; 0.375 mg dose, Weeks 4 and 12, all 4 criteria)?
**A.** efficacious vs. placebo

**Q.** And the “Improvement in moderate to severe symptoms of vulvar and vaginal atrophy” value (menopausal women [4]; 0.27 mg dose)?
**A.** statistically significant improvement

**Q.** And the “Symptom of Vulvar and Vaginal Atrophy, number of subjects rated Moderate” value (menopausal women [4]; [5])?
**A.** 21

**Q.** And the “Symptom of Vulvar and Vaginal Atrophy, number of subjects rated Severe” value (menopausal women [4]; [5])?
**A.** 16

**Q.** And the “Symptom of Vulvar and Vaginal Atrophy, percent of subjects rated Severe” value (menopausal women [4]; [5])?
**A.** (13.9%)

**Q.** What about the “Symptom of Vulvar and Vaginal Atrophy, number of subjects rated Mild” value (menopausal women [4]; [6]) of the same compound?
**A.** 15

**Q.** What about the “Symptom of Vulvar and Vaginal Atrophy, number of subjects rated Moderate” value (menopausal women [4]; [6]) of the same compound?
**A.** 10

**Q.** What about the “Symptom of Vulvar and Vaginal Atrophy, number of subjects rated None” value (menopausal women [4]; [6]) of the same compound?
**A.** 6
